# Results published in patent publication US10786468B2, “Deacetylnemorone abietane diterpenoids for use in cancer treatment” (University of South Carolina, priority 2017, dated 2020).
# What was measured:
# [1] = tested on: MG-63 (osteosarcoma) cells; assay: MTS assay, MG-63; type: cell-based; settings: MG-63, 48 and 72 hours of exposure, FIG. 9
# From the text: (§1) The human cell lines used for MTS assay screening included MG-63 (osteosarcoma), SK-OV-3 (ovarian adenocarcinoma), MDA-MB-231 (breast adenocarcinoma derived from a metastatic site), HCT 116 (colorectal carcinoma), HCT 116/200 (an FdUrd resistant subclone of HCT 116 cells), A2780ADR (a doxorubicin resistant subclone of the ovarian carcinoma A2780), and HUVEC (normal human umbilical vein endothelial cells). All cells were stored in liquid nitrogen until use. MG-63, SK-OV-3, MDA-MB-231, and HCT 116 cell lines were all obtained from ATCC. A2780ADR cells were obtained from Sigma-Aldrich. HCT 116/200 cells were obtained from Dr. Franklin G. Berger from the Center for Colon Cancer Research. HUVEC cells were obtained from Lonza. MG-63 cells were maintained in MEM medium (Corning) supplemented with 10% Fetal Bovine Essence (VWR) and 1% penicillin/streptomycin solution (Corning). […]
# (§2) Cells were first grown to approximately 80% confluency within […] tissue culture flasks (VWR). […] Cells were counted using a hemocytometer and their viability was confirmed using trypan blue (Gibco). […]
# (§3) After seeding, the cells were incubated for 24 hours at 37° C. and 5% CO2 to allow for cell attachment and renewal of the exponential growth phase. […] The cells were incubated for 2 hours, and the absorbance of each well at 490 nm was measured using a Spectramax 190 microplate reader.
# [2] = tested on: HCT 116/200 (FdUrd resistant subclone of HCT 116) cells; assay: MTS assay, HCT 116/200; type: cell-based
# From the text: as §1, §2, §3
# melanoma line SK-MEL-5 = assay: NCI-60 one-dose screen, SK-MEL-5; type: cell-based; settings: 10 μM, 48 hours
# Method: (§4) One dose cytotoxicity screening was performed by the NCI-60 screening program of the National Institutes of Health (NIH), which is known in the art and available from the NIH. The NCI-60 panel is a collection of cancer cell lines, from various diverse tumors, which was developed in the 1980s by the National Cancer Institute to aid screening efforts for cytotoxic or cytostatic compounds.
# (§5) In these screens 59 cell lines were utilized to determine the cytotoxic effect of the deacetylnemorone. […]
# (§6) A control for each cell type was also simultaneously created, which was treated with 100 μL of culture media without deacetylnemorone. […] The bound stain was then dissolved in 10 mM trizma base and the absorbance was read using an automated plate reader at 515 nm.
# (§7) Suspension cells were treated in the same fashion with the exception that the cells were fixed once they had settled at the bottom of the wells using 50 μL of 80% TCA. The absorbance of each well was then converted to growth percent using equation 1 (below) where Ti is the average absorbance of the samples treated with a certain concentration of the compound of this invention, Tz represents the average absorbance of the samples fixed at the time the compound of interest was added to the experimental groups, and C is the average absorbance of the media treated control. […]
# [3] = tested on: HCT 116 (colorectal carcinoma) cells; assay: MTS assay, HCT 116; type: cell-based
# From the text: as §1, §2, §3
# [4] = tested on: MDA-MB-231 breast cancer cells; assay: In vitro invasion assay (cell-free gap); type: cell-based, human
# Method: Cell migration of MDA-MB-231 breast cancer cells was assessed through making a cell-free gap with a Culture Insert 2 well 24 (Ibidi), consisting of two wells that were separated by a wall. A total of 70 μl of cell suspension comprising of 35×10^3 cells was added to each well. Cells were given 24 hours to attach and reach confluency. Culture inserts were then removed and cell debris was washed with PBS. Fresh culture media supplemented with different concentration of the compound of interest was added to the wells and the cells were incubated at 37° C. and 5% CO2 for 26 hours. Images were taken 0, 6, 20, and 26 hours after compound addition using a phase contrast Nikon Eclipse Ti-E inverted microscope. Quantification of invasion was performed by measuring the gap distance for three repetitions and using the following formula,
# [formula] where Wn is the width of gap after incubation, and W0 is the initial width right after forming the gap. Tube Formation Assay
# HUVEC endothelial cells = assay: Tube formation assay on growth factor reduced Matrigel; type: cell-based, human; settings: 8 hours of incubation
# Method: Growth factor reduced BD Matrigel (Corning), stored long-term at −20° C., was thawed on ice overnight in a 4° C. refrigerator prior to use. The following day, 50 μL of the thawed Matrigel was added to each well of a pre-chilled 96-well plate and incubated at 37° C. and 5% CO2 for approximately 30 minutes to allow the matrix to form a gel. Next, 100 μL of a cell suspension containing 20,000 HUVEC cells in cell culture media with various concentrations of deacetylnemorone was added to each well. The control consisted of HUVEC cells suspended in endothelial growth media alone. After 8 hours of incubation at 37° C. and 5% CO2, the number of tubes formed between the endothelial cells were quantified using an inverted microscope (Invitrogen EVOS FL Auto at 4× magnification).
# melanoma cell lines = assay: NCI-60 one-dose screen, melanoma cell lines; type: cell-based; settings: 10 μM, 48 hours; in 6 out of 9 melanoma cell lines
# Method: as §4, §5, §6, §7
# [5] = tested on: MDA-MB-231 (breast adenocarcinoma) cells; assay: MTS assay, MDA-MB-231; type: cell-based
# From the text: as §1, §2, §3
# [6] = tested on: SK-OV-3 (ovarian adenocarcinoma) cells; assay: MTS assay, SK-OV-3; type: cell-based; settings: SK-OV-3, 48 and 72 hours of exposure, FIG. 10
# From the text: as §1, §2, §3
# [7] = tested on: A2780ADR (doxorubicin resistant subclone of ovarian carcinoma A2780) cells; assay: MTS assay, A2780ADR; type: cell-based; settings: 48 and 72 hours of exposure, FIG. 14
# From the text: as §1, §2, §3
# SKMEL5 melanoma cells = assay: Cell cycle analysis (PI staining, flow cytometry); type: cell-based
# Method: The effect of the deacetylnemorone on the cell cycle of SKMEL5 melanoma cells was determined using a PI staining assay. SKMEL5 cells were maintained in RPMI 1640 media supplemented with 10% FBS and 2 mM L-glutamine and incubated at 37° C. and 5% CO2. The cells were seeded in 6 well plates at a density of 300,000 cells per well. After 24 hours, the media was removed and replaced with either fresh media (control) or with media supplemented with 17.3 μM of the deacetylnemorone of FIG. 1. The cells were incubated with this treatment for 72 hours total. At 6, 12, 24, 48, and 72 hours, the cells from two wells each of the control of the treated group were trypsinized, collected in centrifuge tubes, and centrifuged at 2500 rpm for 5 minutes. The supernatant was removed, and the pellet was washed with PBS and centrifuged 2 times. The pellet was then suspended in 500 μL PBS and added 3 mL of 70% ethanol dropwise while vortexing. This mixture was then incubated at 4° C. for 24 hours. Next, the mixture was centrifuged, the supernatant was removed and the pellet was suspended in PBS and stored at 4° C. until all the samples were collected. […]
# [8] = tested on: 59 cell lines of the NCI-60 panel; assay: NCI-60 one-dose cytotoxicity screen, 59 cell lines; type: cell-based; settings: 10 μM
# Method: as §4, §5, §6, §7
substance,measurement,setting,value
deacetylnemorone,"cytotoxicity (percent viability, MTS)",[1],significant cytotoxic properties
same,"cytotoxicity (percent viability, MTS)","[2]; HCT 116/200, 48 and 72 hours of exposure, FIG. 13",significant cytotoxic properties
same,"cytotoxic effect in combination with FdUrd (percent viability, cell number)","[2]; HCT 116/200, 48 hour exposure, combination with FdUrd, FIG. 16 and 17","dose dependent, synergistic cytotoxic effect"
same,percent growth,melanoma line SK-MEL-5,negative percent growth
same,"cytotoxicity (percent viability, MTS)","[3]; HCT-116, 48 and 72 hours of exposure, FIG. 12",significant cytotoxic properties
same,lowest concentration at which cell death was indicated (MTS),[3]; colon cancer,10 µg/mL
same,invasion of breast cancer cells,"[4]; 1 μg/mL, after 26 hours",significantly inhibited
same,invasion of breast cancer cells,"[4]; 10 μg/mL, after 26 hours",significantly inhibited
same,invasion of breast cancer cells,[4]; after 20 hours of incubation,significantly inhibited
same,tube formation between HUVEC cells,HUVEC endothelial cells; 0.1 μg/mL,inhibit tube formation
same,tube formation between HUVEC cells,HUVEC endothelial cells; 10 μg/mL,inhibit tube formation
same,growth inhibition of melanoma cell lines,melanoma cell lines,more than 70%
same,"cytotoxicity (percent viability, MTS)","[5]; MDA-MB-231, 48 and 72 hours of exposure, FIG. 11",significant cytotoxic properties
same,lowest concentration at which cell death was indicated (MTS),[5]; breast cancer,10 µg/mL
same,"cytotoxicity (percent viability, MTS)",[6],significant cytotoxic properties
same,"cytotoxicity (percent viability, MTS)",[7],significant cytotoxic properties
same,percent of cells in S phase,"SKMEL5 melanoma cells; SKMEL5, after 24 hours, 17.3 μM (method) / 15 μM (figure legend)",increase in the percent of cells in S phase
same,sub-G1 population,"SKMEL5 melanoma cells; SKMEL5, up to 72 hours",low sub-G1 population
same,number of cell lines whose growth was inhibited,"[8]; 48 hours, 59 cell lines screened",55 of the 59
same,average inhibition of percent growth across all 59 cell lines,[8]; after 48 hours,47%
